# Laboratory results as given in patent publication US20220389515A1, “USE OF BIOMARKERS TO PREDICT CLINICAL SENSITIVITY TO 2-(4-CHLOROPHENYL)-N-((2-(2,6-DIOXOPIPERIDIN-3-YL)-1-OXOISOINDOLIN-5-YL)METHYL)-2,2-DIFLUOROACETAMIDE” (priority 2019, published 2022).
# Entries after “also recorded” stand apart in the source; their conditions may differ.
# Legend:
# GSPT1 [1] = target: T1, GSPT1 (Homo sapiens, UniProt P15170, G437N); assay: Immunoblot analysis of Compound D-induced GSPT1 degradation in AML cells; assay type: cell-based; details: U937, MOLM-13, OCI-AML2 stably expressing HA-GSPT1-G575N
# T1 construct: endogenous in cells; host or cells: KG-1 (TMT proteomics); KG1, U937 / U937-Cas9, MOLM-13, OCI-AML2 (immunoblots)
# T1 sequence (P15170 1-637 isoform P15170-3 G575N): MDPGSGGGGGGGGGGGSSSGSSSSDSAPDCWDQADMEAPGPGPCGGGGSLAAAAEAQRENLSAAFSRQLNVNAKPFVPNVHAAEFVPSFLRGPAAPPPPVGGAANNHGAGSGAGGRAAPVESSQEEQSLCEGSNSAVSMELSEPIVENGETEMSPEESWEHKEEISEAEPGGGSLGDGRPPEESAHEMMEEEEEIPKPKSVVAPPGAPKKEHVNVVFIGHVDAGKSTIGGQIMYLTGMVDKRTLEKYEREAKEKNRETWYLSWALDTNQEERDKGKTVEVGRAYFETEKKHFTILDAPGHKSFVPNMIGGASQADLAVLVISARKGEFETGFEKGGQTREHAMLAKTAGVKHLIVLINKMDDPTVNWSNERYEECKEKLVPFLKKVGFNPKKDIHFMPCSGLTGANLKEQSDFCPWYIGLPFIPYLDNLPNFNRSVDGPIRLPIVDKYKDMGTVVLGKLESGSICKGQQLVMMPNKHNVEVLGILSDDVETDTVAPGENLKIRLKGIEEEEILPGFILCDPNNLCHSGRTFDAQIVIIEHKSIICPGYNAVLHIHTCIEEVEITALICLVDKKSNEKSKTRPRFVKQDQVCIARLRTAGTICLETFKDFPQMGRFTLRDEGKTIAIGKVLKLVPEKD
# T1 sequence (Q96SW2 whole entry partner): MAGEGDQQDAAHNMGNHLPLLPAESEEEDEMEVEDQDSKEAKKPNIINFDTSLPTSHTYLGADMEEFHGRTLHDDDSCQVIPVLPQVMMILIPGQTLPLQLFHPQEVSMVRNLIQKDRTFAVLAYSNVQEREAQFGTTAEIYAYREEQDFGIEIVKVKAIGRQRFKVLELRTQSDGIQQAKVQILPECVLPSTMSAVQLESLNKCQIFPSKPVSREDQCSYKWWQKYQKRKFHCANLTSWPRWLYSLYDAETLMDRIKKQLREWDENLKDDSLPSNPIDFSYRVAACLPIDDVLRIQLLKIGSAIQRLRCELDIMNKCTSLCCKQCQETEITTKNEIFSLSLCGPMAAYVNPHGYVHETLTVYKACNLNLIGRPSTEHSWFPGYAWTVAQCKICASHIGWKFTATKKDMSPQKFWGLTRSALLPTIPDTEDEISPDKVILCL
# T1 sequence (Q16531 2-1140 partner): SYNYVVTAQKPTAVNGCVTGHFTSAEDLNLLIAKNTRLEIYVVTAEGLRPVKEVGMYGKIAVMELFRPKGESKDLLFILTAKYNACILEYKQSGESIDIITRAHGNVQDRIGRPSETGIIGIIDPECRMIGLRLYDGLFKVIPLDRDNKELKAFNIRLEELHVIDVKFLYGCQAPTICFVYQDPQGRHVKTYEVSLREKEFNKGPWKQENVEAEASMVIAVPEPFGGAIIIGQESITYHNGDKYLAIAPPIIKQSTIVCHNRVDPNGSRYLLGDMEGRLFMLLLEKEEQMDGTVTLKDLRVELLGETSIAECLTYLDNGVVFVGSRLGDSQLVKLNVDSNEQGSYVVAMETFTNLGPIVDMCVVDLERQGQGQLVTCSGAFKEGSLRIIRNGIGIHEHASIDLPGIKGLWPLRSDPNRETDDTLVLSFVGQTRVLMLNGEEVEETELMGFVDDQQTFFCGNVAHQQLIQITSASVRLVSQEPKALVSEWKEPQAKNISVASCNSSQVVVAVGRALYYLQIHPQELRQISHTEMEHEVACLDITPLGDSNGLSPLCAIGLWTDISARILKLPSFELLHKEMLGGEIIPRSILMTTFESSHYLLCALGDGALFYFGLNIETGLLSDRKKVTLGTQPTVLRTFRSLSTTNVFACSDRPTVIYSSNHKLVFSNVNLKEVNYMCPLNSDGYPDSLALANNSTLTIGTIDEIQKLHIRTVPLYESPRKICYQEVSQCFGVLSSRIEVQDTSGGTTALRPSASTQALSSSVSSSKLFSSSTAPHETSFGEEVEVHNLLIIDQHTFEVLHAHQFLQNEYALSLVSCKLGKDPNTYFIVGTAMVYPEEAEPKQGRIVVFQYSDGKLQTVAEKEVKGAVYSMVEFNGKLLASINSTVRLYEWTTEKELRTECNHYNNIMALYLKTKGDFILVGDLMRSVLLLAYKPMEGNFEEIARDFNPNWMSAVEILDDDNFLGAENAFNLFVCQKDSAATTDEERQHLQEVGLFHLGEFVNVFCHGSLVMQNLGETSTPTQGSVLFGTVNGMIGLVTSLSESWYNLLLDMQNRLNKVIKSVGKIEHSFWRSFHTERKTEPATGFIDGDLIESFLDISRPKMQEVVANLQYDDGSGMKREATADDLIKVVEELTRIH
# Protocol: (§1) FIG. 2A illustrates the volcano plot of differentially abundant proteins in response to Compound D treatment relative to the DMSO control. KG1 cells were treated with DMSO or 100 nM Compound D for 4 hours and subjected to TMT proteomics analysis. The X-axis denotes the log 2-fold change of Compound D versus the DMSO control for each protein. P-values were corrected for multiple hypothesis testing using the Benjamini-Hoschberg method to arrive at an adjusted-P-value (adj-P, also known as a false discovery rate). The y-axis denotes the −log 10 (adj-P) values indicating statistical significance such that proteins lying above the dotted red line are statistically significant findings with adjusted P-values<0.05. FIG. 2B illustrates the immunoblot analysis of KG1 and U937 cells treated with DMSO or Compound D for 4 hours. Where indicated, cells were pretreated with Bortezomib or MLN4924 for 30 minutes. FIGS. 2C and 2D illustrate the immunoblot analysis (FIG. 2C) and cell proliferation (FIG. 2D) of U937-Cas9 parental cells or cells stably transduced with lentiviral vectors expressing a non-targeting sgRNA (sgNT-1), a sgRNA targeting a non-coding region (sgNC-8), or a sgRNA targeting CRBN(sgCRBN-8). Cells were treated with DMSO or Compound D at indicated concentrations. FIGS. 2E and 2F illustrate the immunoblot analysis (left panel) and cell proliferation (right panel) of MOLM-13 (FIG. 2E) and OCI-AML2 (FIG. 2F) parental and CRBN−/− cells. Cells were treated with DMSO or Compound D at indicated concentrations. Results shown in all figure panels are representative of three biological replicates. Data in FIGS. 2D, 2E (right panel), and 2F (right panel) are shown as mean±SD, n=3 technical replicates.
# (§2) FIG. 3A illustrates FLAG-HA tagged cereblon wild-type (FLAG-HA-CRBN) or Y384A/W386A mutant (FLAG-HA-YWAA) produced in 293FT CRBN−/− cells was used to capture V5 tagged GSPT1 (GSPT1-V5) and V5 tagged IKZF1 (IKZF1-V5) transiently expressed in 293FT CRBN−/− cells. […] FIG. 3B illustrates the surface representation of GSPT1 in complex with cereblon, DDB1 and Compound D, with DDB1 shown in purple, cereblon in blue, and GSPT1 in orange. The position of Compound D is shown with a white arrow. FIG. 3C illustrates the Fo-Fc omit electron density (green mesh) for Compound D (yellow sticks) contoured at 3.06. FIG. 3D illustrates GSPT1's interaction with cereblon is mediated by a β-hairpin loop. Hydrogen bond interactions between cereblon and the GPST1 β-hairpin are shown as yellow dashes. FIG. 3E illustrates details of the binding interface between cereblon and GSPT1. Compound D is represented as yellow sticks. Predicted polar interactions between Compound D and cereblon are shown as yellow dashes. FIG. 3F illustrates the immunoblot analysis of U937 parental cells or cells stably expressing HA-GSPT1-G575N. Cells were treated with DMSO or Compound D at the indicated concentrations. FIGS. 3G and 311 illustrate the immunoblot analysis (left panel) and cell proliferation (right panel) of MOLM-13 (FIG. 3G) and OCI-AML2 (FIG. 311) parental cells and cells stably expressing HA tagged GSPT1-G575N. Cells were treated with DMSO or Compound D at indicated concentrations.
# (§3) Like all other cereblon modulators, Compound D contains a glutarimide ring (FIG. 1A) that can bind cereblon and redirect it to target neosubstrates for degradation. Thus, the effect of Compound D on the global proteome in AML cell line KG-1 was assessed using tandem mass tag (TMT) quantitative mass spectrometry.
# (§4) Specifically, U937 cells stably expressing Cas9 were infected with lentiviral vectors constitutively expressing RFP and non-targeting or non-coding sgRNA (sgNT) controls, or sgRNAs targeting TSC1 or TSC2. Infected cells were selected with 1 μg/ml puromycin. […]
# GSPT1 [2] = target: T2, GSPT1 (Homo sapiens, UniProt P15170); assay: as above; assay type: cell-based
# T2 construct: endogenous in cells; host or cells: KG-1 (TMT proteomics); KG1, U937 / U937-Cas9, MOLM-13, OCI-AML2 (immunoblots)
# T2 sequence (P15170 1-637 isoform P15170-3): as the sequence (P15170 1-637 isoform P15170-3 G575N) above, with N575G counted along it
# T2 sequence (Q96SW2 whole entry partner): as the sequence (Q96SW2 whole entry partner) above
# T2 sequence (Q16531 2-1140 partner): as the sequence (Q16531 2-1140 partner) above
# Protocol: as §1, §2, §3, §4
# cereblon to GSPT1 [3] = target: T3, cereblon to GSPT1 (Homo sapiens, UniProt P15170+Q96SW2); assay: Cereblon binding assay with cell extracts (anti-HA immunoprecipitation), GSPT1; details: wild-type FLAG-HA-CRBN; compound added directly into the binding assay
# T3 construct: expressed in transfected cells; host or cells: 293FT CRBN-/- cells (transient transfection; cell extracts, anti-HA immunoprecipitation)
# T3 sequence (Q96SW2 whole entry): as the sequence (Q96SW2 whole entry partner) above
# T3 sequence (P15170 1-637 isoform P15170-3): as the sequence (P15170 1-637 isoform P15170-3 G575N) above, with N575G counted along it
# Description: as §2, with “FIG. 3D illustrates GSPT1's interaction with cereblon is mediated by a β-hairpin loop.” left out
# cereblon to GSPT1 [4] = target: T4, cereblon to GSPT1 (Homo sapiens, UniProt P15170+Q96SW2, W386A/Y384A); assay: as above; details: FLAG-HA-YWAA mutant
# T4 construct: expressed in transfected cells; host or cells: 293FT CRBN-/- cells (transient transfection; cell extracts, anti-HA immunoprecipitation)
# T4 sequence (Q96SW2 whole entry Y384A/W386A): as the sequence (Q96SW2 whole entry partner) above, with Y384A, W386A counted along it
# T4 sequence (P15170 1-637 isoform P15170-3, stated change not applied): as the sequence (P15170 1-637 isoform P15170-3 G575N) above, with N575G counted along it
# Description: as §2, with “FIG. 3D illustrates GSPT1's interaction with cereblon is mediated by a β-hairpin loop.” left out
compound,measurement,setting,value
"O=C1CCC(N2Cc3cc(CNC(=O)C(F)(F)c4ccc(Cl)cc4)ccc3C2=O)C(=O)N1 (centres unmarked) [Compound D, 2-(4-chlorophenyl)-N-((2-(2,6-dioxopiperidin-3-yl)-1-oxoisoindolin-5-yl)methyl)-2,2-difluoroacetamide]",Compound D-induced degradation of GSPT1-G575N,GSPT1 [1],conferred complete resistance to Compound D-induced degradation
same,"downregulation of GSPT1 by Compound D under bortezomib, MLN4924 or knockout of CRBN","GSPT1 [2]; KG1, U937, MOLM-13, OCI-AML2, pretreatment 30 minutes",completely blocked
same,Compound D induced GSPT1 degradation after ILF2 or ILF3 knockout,"GSPT1 [2]; U937, OCI-AML2","drastically reduced cereblon protein levels, and hence Compound D-induced GSPT1 degradation; also recorded: attenuated Compound D induced GSPT1 degradation"
same,"GSPT1 expression, cotreatment with cycloheximide",GSPT1 [2]; U937-Cas9 parental,downregulated GSPT1 expression
same,"GSPT1 expression, cotreatment with cycloheximide, TSC1 or TSC2 loss",GSPT1 [2]; U937 TSC1-/- and TSC2-/-,largely abrogated this effect
same,Compound D induced GSPT1 degradation after TSC1 or TSC2 knockout,GSPT1 [2]; U937 and OCI-AML2,partially blocked GSPT1 degradation induced by Compound D; also recorded: Attenuated Compound D induced GSPT1 degradation
same,binding of cereblon to GSPT1,cereblon to GSPT1 [3],promoted the binding of cereblon to GSPT1
same,binding of cereblon mutant Y384A and W386A to GSPT1,cereblon to GSPT1 [4],completely abolished the binding of cereblon
